Laboratory results taken from patent publication US12280090B2, “Antimicrobial peptides” (priority 2018, dated 2025).
Values after ≈ are worked out from the molar mass of the structure shown. Read-outs that look alike come from different tables or passages of the source. Ends that are not written are not given here. Peptide text beside a SMILES is read from it.

Key:
Type in all cases: cell-based
[1] = test system: Escherichia coli—ATCC 25922 “wild type”
Experimental: (§1) Independent experiments were conducted with four strains of E. coli, including ATCC E. coli (Escherichia coli—ATCC 25922 “wild type”); ESBL E. coli (Escherichia coli—Extended spectrum beta-lactamase); CPO E. coli (KPC) (Escherichia coli—Carbapenemase-producing organism; Klebsiella pneumoniae carbapenemase); and CPO E. coli (NDM) (Escherichia coli—Carbapenemase-producing organism; New-Dehli Metallobetalactamase).
(§2) The ATCC (American Type Culture Collection) strains received from Cedarlane. Multi drug resistant (MDR) strains, as clinical isolates, were received from the laboratory of Dr. Linda Hoang.
(§3) Putative antimicrobial peptides were synthesized by GeneScript. A-list antimicrobial peptides re-synthesized by GeneScript. P2_CCH, P5_CCH, and P5_CCH_A19K were each synthesized under two conditions: standard synthesis using TFA, and the other with TFA-removal using acetate as a counter-ion. A MIC method, adapted for use with cationic antimicrobial peptides, was used to evaluate MIC antimicrobial activity (Hancock 1999).
(§4) The following data are presented to show the activity (MIC/MBC in μg/mL) of certain antimicrobial peptides described herein relative to a modified/synthetic version having a specified substitution. While data presented in tables above may be presented again, or may be represented in data provided in the tables below, such duplication is believed to assist the reader in readily noting comparisons. Different Run Numbers noted in the following tables denotes experiments conducted on different days, with each run reflecting multiple n values.

[2] = test system: Escherichia coli—Carbapenemase-producing organism; Klebsiella pneumoniae carbapenemase
Experimental: as §1, §2, §3, §4

[3] = test system: Escherichia coli—Carbapenemase-producing organism; New-Dehli Metallobetalactamase
Experimental: as §1, §2, §3, §4

[4] = test system: Escherichia coli: ATCC 9723H
Experimental: (§5) Microtiter broth dilution assays. HP2, HP3, and HP5 peptides are comprised of novel sequences that have not yet been described in the AMP literature. A common method for establishing antimicrobial activity of peptides is to perform microtiter broth assays. Microtiter broth dilution methods were implemented for determination of the minimum inhibitory concentration (MIC) and minimum bactericidal concentration (MBC). HP3 and HP5 were tested in addition to Ranatuerin-1/HP4 peptide as a positive control. HP2 could not be tested because multiple peptide synthesis attempts failed. The human cathelicidin, LL-37^30 was used as an additional positive control, and an unrelated similarly sized cationic peptide from the T. pallidum protein Tp0751 was used as a negative control. The potential AMPs were tested against bacteria representative of all three types of known cell envelope (Gram-positive, negative, and the complex and unique mycobacterial cell wall/envelope), given that a major mechanism used by AMPs is cell wall/membrane targeting.
(§6) Microtiter broth dilution assays. To test for antimicrobial activity, HP3, HP4/Ranatuerin-1, and HP5, peptides were synthesized by GenScript (Piscataway, New Jersey, USA). HP2 was not tested because the service provider was unable to synthesize this peptide despite multiple attempts. An unrelated, similarly-sized peptide from the Treponema pallidum protein Tp0751^55 was used as a negative control and the human cathelicidin, LL-37^30, was included as a positive control. Peptides were dissolved in filter-sterilized ultrapure water and tested for sterility by plating on non-selective agar plates followed by a 48 h incubation at 37° C. Two-fold serial dilutions of each peptide were prepared to obtain a series corresponding to ten times the required testing concentrations (2560, 1280, 640, 320, 160, 80, 40, 20, 10, and 5 μg/mL)^29.
(§7) Microtiter broth dilution methods were implemented for determination of the minimum inhibitory concentration (MIC) and minimum bactericidal concentration (MBC) of the four putative AMPs and the negative control peptide using procedures adapted from the R.E.W. Hancock Laboratory for cationic AMPs^29 and the CLSI methods for dilution antimicrobial susceptibility tests^56.
(§8) To assess antimicrobial activity across a diverse range of bacterial species, colonies were cultured overnight on Mueller Hinton agar plates (MHA; +5% sheep blood for S. pyogenes)^56 from frozen glycerol stock. Bacteria tested include Gram-negative rods (Escherichia coli: ATCC 9723H; Pseudomonas aeruginosa: ATCC 10148), Gram-positive cocci (Staphylococcus aureus: ATCC 6538P; Streptococcus pyogenes: unknown strain, hospital isolate), and Mycobacterium smegmatis (MC^2155; classified as neither Gram-positive nor Gram-negative). Bacterial suspensions were prepared by placing 3-5 morphologically similar colonies from the grown plate into sterile glass culture tubes containing 2 mL of Mueller Hinton Broth (MHB; +5% lysed horse blood for S. pyogenes) 56. Microbial inoculums from bacterial suspensions were prepared through a spectrophotometric adjustment of turbidity to 0.08-0.1 at 600 nm to achieve a turbidity equivalent to that of a 0.5 McFarland standard (1-2×10^8 CFU/mL)^29. The standardized bacterial inoculums were then diluted in MHB to obtain final cell densities of approximately […].
(§9) Ninety-six-well microtiter plates (Fisher Cat. No. CS003790; Nepean, Ontario, Canada) were prepared with 100 μL of E. coli, P. aeruginosa, S. aureus, S. pyogenes, or M. smegmatis bacterial suspension (5×10^5 CFU/mL) dispensed into each well of columns 1 through 11. Eleven microliters of the 10×AMP dilution series for all four peptides were added to each well from column 1 (2560 μg/mL) to column 10 (5 μg/mL) in all plates. Column 11 functioned as a positive control for bacterial growth in the absence of AMPs. Column 12 in each plate contained 100 μL of MHB as a sterility control (+5% lysed horse blood for S. pyogenes)^56. […]

[5] = test system: Mycobacterium smegmatis (MC^2155)
Experimental: as §5, §6, §7, §8, §9

[6] = test system: Pseudomonas aeruginosa: ATCC 10148
Experimental: as §5, §6, §7, §8, §9

[7] = test system: Staphylococcus aureus: ATCC 6538P
Experimental: as §5, §6, §7, §8, §9

[8] = test system: Streptococcus pyogenes: unknown strain, hospital isolate
Experimental: as §5, §6, §7, §8, §9

[9] = test system: Escherichia coli—Extended spectrum beta-lactamase
Experimental: as §1, §2, §3, §4

[10] = unknown strain, hospital isolate

Row | Compound | MIC [3] [µg/mL] | MBC ([4]; ATCC 9723) [µg/mL] | MIC ([4]; ATCC 9723) [µg/mL] | MBC ([5]; Mycobacterium (MC^2155)) [µg/mL] | MIC ([5]; Mycobacterium (MC^2155)) [µg/mL] | MBC ([6]; ATCC 10148) [µg/mL] | MIC ([6]; ATCC 10148) [µg/mL] | MBC ([7]; ATCC 6538) [µg/mL] | MIC ([7]; ATCC 6538) [µg/mL] | MBC [8, 10] [µg/mL] | MIC [8, 10] [µg/mL] | also measured
1 | CC(C)C[C@H](NC(=O)[C@H](CS)NC(=O)[C@@H]1CCCN1C(=O)[C@H](CCCCN)NC(=O)[C@H](CCCNC(=N)N)NC(=O)[C@@H]1CCCN1C(=O)[C@H](Cc1ccccc1)NC(=O)[C@H](CO)NC(=O)[C@H](CCCCN)NC(=O)[C@@H](NC(=O)[C@H](Cc1c[nH]c2ccccc12)NC(=O)[C@H](CS)NC(=O)CNC(=O)[C@H](CCCNC(=N)N)NC(=O)[C@H](CC(C)C)NC(=O)[C@@H](N)CO)[C@@H](C)O)C(=O)N[C@@H](CCCNC(=N)N)C(=O)N[C@@H](CC(N)=O)C(=O)N[C@@H](CCCNC(=N)N)C(=O)O [HP3_S3R] (H-SLRGCWTKSFPRKPCLRNR-OH; N-terminus and C-terminus assumed) | 128 (≈ 55.5 µM) | – | – | – | – | – | – | – | – | – | – | MIC [1]: 128 µg/mL (≈ 55.5 µM); MBC [2]: 256 µg/mL (≈ 111 µM); MIC [2]: 256 µg/mL (≈ 111 µM)
2 | ATAWRIPPPGMQPIIPIRIRPLCGKQ [Peptide P7_CCH] | 256 | >256 | >256 | >256 | 32 | >256 | >256 | >256 | >256 | >256 | >256 | –
3 | FLTKPGMTFGKLLGK [Peptide P9_CCH] | – | >256 | >256 | >256 | >256 | >256 | >256 | >256 | >256 | >256 | >256 | –
4 | CC[C@H](C)[C@H](NC(=O)[C@H](C)NC(=O)[C@@H]1CCCN1C(=O)[C@@H](N)Cc1ccccc1)C(=O)N[C@H](C(=O)N[C@@H](CS)C(=O)N[C@@H](CCCCN)C(=O)N[C@H](C(=O)N[C@@H](CO)C(=O)N[C@@H](CCCCN)C(=O)N[C@@H](CCCCN)C(=O)N[C@@H](CS)C(=O)O)C(C)C)[C@@H](C)CC [Peptide P8_CCH_N11K, FPAIICKVSKKC] (H-FPAIICKVSKKC-OH; N-terminus and C-terminus assumed) | 128 (≈ 95.8 µM) | – | – | – | – | – | – | – | – | – | – | MBC [3]: 128 µg/mL (≈ 95.8 µM); MBC [9]: 128 µg/mL (≈ 95.8 µM); MIC [9]: 128 µg/mL (≈ 95.8 µM)
5 | SNRDFFKVNIFRLCG [Peptide P10_CCH, SNRDFFKVNIFRLCG] | – | >256 | >256 | >256 | >256 | >256 | >256 | >256 | >256 | >256 | >256 | –
6 | CC[C@H](C)[C@H](NC(=O)CNC(=O)[C@@H](NC(=O)[C@@H](NC(=O)[C@H](CCCCN)NC(=O)CNC(=O)[C@@H](NC(=O)[C@H](CC(=O)O)NC(=O)[C@H](CCCCN)NC(=O)[C@@H](NC(=O)[C@@H](NC(=O)[C@H](CC(=O)O)NC(=O)[C@H](CC(C)C)NC(=O)[C@H](CC(C)C)NC(=O)CN)[C@@H](C)CC)[C@@H](C)CC)[C@@H](C)O)[C@@H](C)O)[C@@H](C)O)C(=O)N[C@@H](CC(C)C)C(=O)N[C@@H](CCSC)C(=O)N[C@@H](CC(=O)O)C(=O)N[C@H](C(=O)N[C@@H](CC(C)C)C(=O)N[C@@H](CCCCN)C(=O)N[C@@H](CS)C(=O)N[C@@H](CCC(N)=O)C(=O)N[C@@H](CCSC)C(=O)N[C@H](C(=O)NCC(=O)N[C@@H](CCCNC(=N)N)C(=O)N[C@@H](CS)C(=O)N1CCC[C@H]1C(=O)N1CCC[C@H]1C(=O)N[C@@H](CO)C(=O)N[C@@H](CO)C(=O)O)[C@@H](C)O)[C@@H](C)O [Peptide P3_CCH] (H-GLLDIIKDTGKTTGILMDTLKCQMTGRCPPSS-OH; N-terminus and C-terminus assumed) | – | >256 | >256 | >256 | >256 | >256 | >256 | >256 | >256 | >256 | >256 | –
7 | FYFPVSRKFGGK [Peptide P1_CCH, FYFPVSRKFGGK] | – | – | >256 | – | – | – | >256 | – | >256 | – | >256 | MBC ([4]; E. coli (Table 5)): > 256 µg/mL; MBC ([5]; M. smegmatis (Table 5)): > 256 µg/mL; MBC ([6]; P. aeruginosa (Table 5)): > 256 µg/mL; MBC ([7]; S. aureus (Table 5)): > 256 µg/mL; MBC ([8]; S. pyogenes (Table 5)): > 256 µg/mL
8 | SNRDFFMVNIFGLCGPFGIMERKRR [Peptide P16_CCH] | – | – | >256 | – | >256 | – | >256 | – | >256 | – | >256 | –
9 | CC[C@H](C)[C@H](NC(=O)[C@H](CC(C)C)NC(=O)[C@H](CCCCN)NC(=O)[C@H](CCCCN)NC(=O)[C@H](CS)NC(=O)[C@H](CCCNC(=N)N)NC(=O)[C@H](CCC(=O)O)NC(=O)[C@@H](NC(=O)[C@@H]1CCCN1C(=O)[C@@H](NC(=O)[C@H](CCC(=O)O)NC(=O)[C@H](CO)NC(=O)[C@H](CS)NC(=O)[C@H](CCC(=O)O)NC(=O)[C@H](CCC(=O)O)NC(=O)[C@H](CCCCN)NC(=O)[C@@H](NC(=O)[C@H](CC(C)C)NC(=O)[C@H](CCC(=O)O)NC(=O)[C@H](CCC(=O)O)NC(=O)[C@H](CC(C)C)NC(=O)[C@H](C)NC(=O)[C@H](CCCNC(=N)N)NC(=O)[C@H](CC(C)C)NC(=O)[C@H](CC(N)=O)NC(=O)[C@H](CO)NC(=O)[C@@H]1CCCN1C(=O)[C@@H](N)CC(N)=O)C(C)C)[C@@H](C)CC)C(C)C)C(=O)N[C@@H](Cc1ccc(O)cc1)C(=O)NCC(=O)N[C@@H](Cc1ccc(O)cc1)C(=O)N[C@@H](CCCNC(=N)N)C(=O)N[C@@H](CCCCN)C(=O)O [HP5] (H-NPSNLRALEELVKEECSEIPVERCKKLIYGYRK-OH; N-terminus and C-terminus assumed) | – | >256 | >256 | – | – | >256 | >256 | >256 | >256 | >256 | >256 | inhibitory or bacteriostatic activity ([4]; E. coli): no effect; bacteriostatic and bacteriocidal activity ([5]; M. smegmatis): weak bacteriostatic and bacteriocidal activity; inhibitory or bacteriostatic activity ([6]; P. aeruginosa): no effect; inhibitory or bacteriostatic activity ([7]; S. aureus): no effect; inhibitory or bacteriostatic activity ([8]; S. pyogenes): no effect
